This is an account of results in publication PMC8284440, “Toward New Transmission-Blocking Combination Therapies: Pharmacokinetics of 10-Amino-Artemisinins and 11-Aza-Artemisinin and Comparison with Dihydroartemisinin and Artemether” (Antimicrobial Agents and Chemotherapy, 2021).

Series [1] is described as follows: Metabolic stability in rat liver microsomes. Further details: half-life / CLint scaled: dose or concentration left out as unconfirmed. Type of series: in vitro ADME. Particulars: for CLint scaled: calculated, read-out: Intrinsic liver clearance rate CLint Rat; for half-life: read-out: Microsomal half-life t1/2 Rat. Here is the method:
(§1) (ii) Metabolic stability in liver microsomes. The metabolic stability assay was performed in duplicate using 96-deepwell plates. Each compound (0.4 mM) was incubated individually in mouse, rat, and pooled human liver microsomes (0.4 mg/ml) at 37°C in the presence and absence of the cofactor NADPH (1 mM). An aliquot was taken at 0, 5, 10, 30, and 60 min, and the reaction was quenched by adding 300 μl of ice-cold acetonitrile containing the internal standard carbamazepine (0.0236 μg/ml) ([88]). The test compounds in the supernatant were analyzed by means of LC-MS/MS as described in “Sample analysis” below. The normalized data for each sample were used to calculate the in vitro half-life, intrinsic clearance rate, and hepatic extraction ratio from the results of this assay using the following equations ([88]).Equation 1. Normalized area. (1) Normalized area=(Peak area of sample at time point/Peak area of internal standard) Equation 2. Percent parent remaining. (2) % Parent=Normalized peak area of sample at time point/Normalized peak area of sample at t=0×100 Equation 3. Calculated t1/2. (3) t1/2=−0.693/λ where λ is the slope of the ln (% parent remaining) versus time curve of the compound.Equation 4. CLint. (4) CLint=[0.693/t1/2(min)]×[Volume of incubation (μl)/Microsomal protein (μg)] Equation 5. Hepatic extraction ratio. (5) EH=fu×CLint/QH + fu×CLint
(§2) Sample extraction. […] The organic layer was then transferred and evaporated under a gentle stream of nitrogen at room temperature for 30 min. The dried samples were reconstituted in mobile phase, and a 5 μl sample was injected for LC-MS/MS analysis. The only exception was the arylurea 10, for which no liquid-liquid extraction was conducted; instead, the 200 μl acetonitrile solution was evaporated under a gentle stream of nitrogen at room temperature. The dried sample was reconstituted in the mobile phase, and a 5 μl sample was injected for LC-MS/MS analysis. The plasma samples for each compound from the in vivo studies were extracted by mixing 350 μl ethyl acetate with 15 μl of plasma sample and 35 μl of universal buffer containing internal standard at pH 8. The samples were vortexed for 1 min and centrifuged for 5 min, and the organic layer was then transferred and evaporated under a gentle stream of nitrogen at room temperature for 30 min. The dried samples were each reconstituted in the mobile phase, and a 5 μl sample was injected for LC-MS/MS analysis.
(§3) LC-MS/MS analysis. For all the artemisinins except the arylurea 10, gradient chromatography was performed on a Phenomenex (Torrance, CA, USA) Luna PFP(2) analytical column (100 Å, 5 μm, 2 by 50 mm) and an AB Sciex API 5500 mass spectrometer which was operated at unit resolution in the multiple reaction monitoring (MRM) mode. The HPLC method used was a gradient method with 5 mM ammonium acetate and 0.1% acetic acid in water as the aqueous phase and a mixture of acetonitrile and methanol (1:1 vol/vol) containing 5% of the aqueous phase as the organic phase ([89]). The arylurea 10 was analyzed using a Phenomenex Gemini NX-C18 (5 μm, 2.1 mm by 50 mm) column with an AB Sciex 3200 QTRAP mass spectrometer operated at unit resolution in the MRM mode. The HPLC method used was a gradient method with 5 mM ammonium acetate and 0.1% acetic acid in water as the aqueous phase and a mixture of acetonitrile and methanol (1:1 vol/vol). The transitions of the molecular ions were monitored, as listed in Table S8 in the supporting information. The calibration range was between 0.002 μg/ml and 6.250 μg/ml. Data acquisition and evaluation were performed using Analyst 1.6.2 software (Applied Biosystems, Foster City, CA, USA). The formation of the putative metabolite DHA from the amino-artemisinins and the metabolite M1 of artemisone were evaluated in these mice PK studies; the MRM transitions of DHA and M1 (Table S8) were thus included in the LC-MS/MS assays.

Series [2] in a line: Metabolic stability in pooled human liver microsomes. The arrangement: CLint scaled: dose or concentration left out as unconfirmed. Particulars: for half-life at 0.4 mM / CLint scaled: human. Here is the method:
as §1, §2, §3

On to `C[C@H]1[C@H](N2C=CS(=O)(=O)CC2)O[C@@H]2O[C@@]3(C)CC[C@H]4[C@H](C)CC[C@@H]1[C@@]24OO3` [M1 12], for which, in series [1], the “Hepatic extraction ratio EH Rat” value is 0.7, the CLint scaled was 108 mL/min/kg and the half-life came out at 28.8 min. In addition, the half-life at 0.4 mM in series [2] (pooled liver microsomes) is greater than 150 min.
Consider `C[C@H]1[C@H](N2CCSCC2)O[C@@H]2O[C@@]3(C)CC[C@H]4[C@H](C)CC[C@@H]1[C@@]24OO3` [Artemiside 5, artemiside], for which, in series [1], the “Hepatic extraction ratio EH Rat” value is 1.0, the CLint scaled was 1390 mL/min/kg and the half-life was less than 10 min. Besides, the “Hepatic extraction ratio EH Human” value in series [2] (human liver microsomes) came out at 1.0. In series [2] (pooled liver microsomes), this compound registered a CLint scaled of 451 mL/min/kg and a half-life at 0.4 mM of less than 10 min.
On to `C[C@H]1[C@H](N2CCS(=O)(=O)CC2)O[C@@H]2O[C@@]3(C)CC[C@H]4[C@H](C)CC[C@@H]1[C@@]24OO3` [Artemisone 6, artemisone], for which, in series [1], the “Hepatic extraction ratio EH Rat” value was 0.9, the CLint scaled was 342 mL/min/kg and the half-life was less than 10 min. Also, the “Hepatic extraction ratio EH Human” value in series [2] (human liver microsomes) is recorded as 0.9. In series [2] (pooled liver microsomes), this compound displayed a CLint scaled of 243 mL/min/kg and a half-life at 0.4 mM of less than 10 min.
As for `CO[C@H]1O[C@@H]2O[C@@]3(C)CC[C@H]4[C@H](C)CC[C@@H]([C@H]1C)[C@@]24OO3` [Artemether 3, artemether], in series [1], the “Hepatic extraction ratio EH Rat” value was determined as 0.9, the CLint scaled is 988 mL/min/kg and the half-life was less than 10 min. Moreover, the “Hepatic extraction ratio EH Human” value in series [2] (human liver microsomes) is given as 0.9. The half-life at 0.4 mM in series [2] (microsomes) came to 12.5 min. The compound also displayed a CLint scaled in series [2] (pooled liver microsomes) of 172 mL/min/kg.
Consider `C[C@H]1[C@H](NS(N)(=O)=O)O[C@@H]2O[C@@]3(C)CC[C@H]4[C@H](C)CC[C@@H]1[C@@]24OO3` [Sulfamide 7], for which, in series [1], the “Hepatic extraction ratio EH Rat” value is recorded as 0.4, the CLint scaled was 32.9 mL/min/kg and the half-life was 94.9 min. In series [2] (human liver microsomes), the “Hepatic extraction ratio EH Human” value was 0.2. In series [2] (pooled liver microsomes), this compound had a CLint scaled of 5.6 mL/min/kg and a half-life at 0.4 mM greater than 150 min.
Turning to `C[C@@H]1CC[C@H]2[C@@H](C)C(=O)N[C@@H]3O[C@@]4(C)CC[C@@H]1[C@]32OO4` [11-Aza-artemisinin 11, 11-aza-artemisinin], in series [1], the “Hepatic extraction ratio EH Rat” value is listed as 0.1, the CLint scaled is 9 mL/min/kg and the half-life was greater than 150 min. Moreover, the “Stability in HLM” value in series [2] (human liver microsomes) is “stable throughout the experiment”. In series [2] (pooled liver microsomes), this compound showed a half-life at 0.4 mM of 60 min.
With `C[C@H]1[C@@H](O)O[C@@H]2O[C@@]3(C)CC[C@H]4[C@H](C)CC[C@@H]1[C@@]24OO3` [DHA 2, dihydroartemisinin], in series [1], the “Hepatic extraction ratio EH Rat” value turned out to be 0.4, the CLint scaled is 34.7 mL/min/kg and the half-life was 90 min. In addition, the “Hepatic extraction ratio EH Human” value in series [2] (human liver microsomes) amounted to 0.7. Further, in series [2] (pooled liver microsomes), the CLint scaled is 41.5 mL/min/kg and the half-life at 0.4 mM amounted to 51.7 min.
With `C[C@H]1[C@H](N2CCN(C(=O)Nc3ccc(F)cc3)CC2)O[C@@H]2O[C@@]3(C)CC[C@H]4[C@H](C)CC[C@@H]1[C@@]24OO3` [Arylurea 10], the “Hepatic extraction ratio EH Human” value in series [2] (human liver microsomes) is given as 0.6. In series [2] (pooled liver microsomes), this compound showed a CLint scaled of 531 mL/min/kg and a half-life at 0.4 mM of less than 10 min.
